Legend:
[1] = tested on: EAE; settings: NBQX treatment in EAE; cited from earlier work
[2] = tested on: adoptive-transfer EAE in female SJL mice; test: Adoptive-transfer EAE, treatment with amlodipine (Example 1); type: in vivo, mouse; settings: two representative animals per group at sampling; clinical index 0-5; control group 2.8
Experimental: FIG. 1 illustrates the clinical course of adoptive-transfer EAE and the effect of treatment with amlodipine. SJL mice were injected with 3×10^7 MBP-activated cells. Starting from Day 5 post-immunization, mice were treated with amlodipine (30 μg as one daily subcutaneous injection) or vehicle (PBS), until Day 13 (Day 9 of treatment). Data represent mean±s.e.m. differences, at respective time-points, between the vehicle-treated group and the amlodipine-treated group. *=p<0.05; **=p<0.01 (students' unpaired, two-tailed t-test); n=8 per group. Induction of Experimental Autoimmune Encephalomyelitis (EAE). Adoptive-transfer EAE was induced in female SJL mice as described ([…] et al., 1998). In brief, lymph node cells were obtained 10 days after myelin basic protein/Complete Freund's Adjuvant immunization. Cells were cultured for 4 days with 50 μg/ml of myelin basic protein, then 3×10^7 cells/mouse were injected into syngeneic mice via tail veins. Onset of disease occurred after 7-9 days. Animals were graded according to a standard clinical index (0-5). Five days after immunization, animals began treatments with one daily injection of 200 μl of vehicle (PBS), or 30 μg of amlodipine in 200 μl of PBS. Neuropathology. At selected time-points, mice from the control and treated groups were perfused with PBS or glutaraldehyde, and the CNS was prepared for frozen or 1-μm epoxy sections, respectively. […]

[3] = tested on: AT-EAE in female SJL/J mice; test: Adoptive-transfer EAE (AT-EAE), treatment with bepridil or nitrendipine (Example 2); type: in vivo, mouse; settings: for difference in average disease scores between vehicle and bepridil groups: bepridil 3 mg/kg from day 3 p.t. (n=14 vs 15); for average difference in disease scores vs vehicle: average over days 13-20 p.t.
[4] = bepridil 3 mg/kg s.c. daily from day 0

**Q.** With NS(=O)(=O)c1cccc2c1c([N+](=O)[O-])cc1[nH]c(=O)c(=O)[nH]c12 [NBQX, 1,2,3,4-tetrahydro-6-nitro-2,3-dioxo-benzoquinoxaline-7-sulfonamide] as the compound, how does the “course of disease, loss of oligodendrocytes and axonal damage” value [1] read?
**A.** The value was “significantly ameliorated the course of the disease and reduced loss of oligodendrocytes and axonal damage”.

**Q.** With CCOC(=O)C1=C(COCCN)NC(C)=C(C(=O)OC)C1c1ccccc1Cl (stereo not shown) [amlodipine, 3-ethyl-5-methyl-2-(2-aminoethoxymethyl)-4-(2-chlorophenyl)-1,4-dihydro-6-methyl-3,5-pyridinedicarboxylate] as the compound, how does the average clinical score [2] read?
**A.** The average clinical score was 1.3.

**Q.** Which “difference in average disease scores between vehicle and bepridil groups” value ([3]; day 13 p.t.) does the source give for CC(C)COCC(CN(Cc1ccccc1)c1ccccc1)N1CCCC1 (stereo not shown) [bepridil] here?
**A.** Its value is 1.07 points.

**Q.** And the “difference in average disease scores between vehicle and bepridil groups” value ([3]; day 14 p.t.)?
**A.** The value was 1.20 points.

**Q.** What about the “difference in average disease scores between vehicle and bepridil groups” value ([3]; day 15 p.t.) of the same compound?
**A.** The value was 0.99 points.

**Q.** And the “difference in average disease scores between vehicle and bepridil groups” value ([3]; day 16 p.t.)?
**A.** Its value is 1.18 points.

**Q.** And the “average difference in disease scores between vehicle and bepridil groups” value ([3]; bepridil 3 mg/kg from day 3 p.t., average over days 13-16 p.t.)?
**A.** Its value is −1.11±0.05 points.

**Q.** What about the “delay of overt disease onset compared with vehicle” value [3, 4] of the same compound?
**A.** Its value is “more than 5 days”.

**Q.** And the “average difference in disease scores vs vehicle” value [3, 4]?
**A.** Its value is 1.66±0.06 points.

**Q.** And the “average difference in disease scores vs vehicle” value ([3]; bepridil 3 mg/kg s.c. daily from day 0, listed as Bepridil)?
**A.** Its value is −1.66±0.06 points.

**Q.** And the “reduction of daily average disease score vs vehicle” value (from here on “reduction”) ([3]; bepridil 3 mg/kg s.c. daily from day 0, day 13 p.t.)?
**A.** The value was 1.8 points.

**Q.** What about the “reduction” value ([3]; bepridil 3 mg/kg s.c. daily from day 0, day 14 p.t.) of the same compound?
**A.** Its value is 2.0 points.

**Q.** What about the “reduction” value ([3]; bepridil 3 mg/kg s.c. daily from day 0, day 15 p.t.) of the same compound?
**A.** The value was 1.45 points.

**Q.** What about the “reduction” value ([3]; bepridil 3 mg/kg s.c. daily from day 0, day 16 p.t.) of the same compound?
**A.** The value was 1.65 points.

**Q.** And the “reduction” value ([3]; bepridil 3 mg/kg s.c. daily from day 0, day 17 p.t.)?
**A.** Its value is 1.60 points.

**Q.** What about the “reduction” value ([3]; bepridil 3 mg/kg s.c. daily from day 0, day 18 p.t.) of the same compound?
**A.** Its value is 1.60 points.

**Q.** And the “reduction” value ([3]; bepridil 3 mg/kg s.c. daily from day 0, day 19 p.t.)?
**A.** Its value is 1.70 points.

**Q.** And the “reduction” value ([3]; bepridil 3 mg/kg s.c. daily from day 0, day 20 p.t.)?
**A.** The value was 1.5 points.

**Q.** Which results are given for CCOC(=O)C1=C(C)NC(C)=C(C(=O)OC)C1c1cccc([N+](=O)[O-])c1 (stereo not shown) [nitrendipine, ethyl methyl-1,4-dihydro-2,6-dimethyl-4-(m-nitrophenyl)-3,5-pyridinedicarboxylate]?
**A.** average amelioration of clinical impairment vs vehicle ([3]; nitrendipine 2.5 mg/kg s.c. daily from day 0, average over days 15-20 p.t.): −1.77±0.11 points; amelioration of clinical impairment (disability score) vs vehicle ([3]; nitrendipine 2.5 mg/kg s.c. daily from day 0, day 15 p.t.): 1.5 points; amelioration of clinical impairment (disability score) vs vehicle ([3]; nitrendipine 2.5 mg/kg s.c. daily from day 0, day 16 p.t.): 1.7 points; amelioration of clinical impairment (disability score) vs vehicle ([3]; nitrendipine 2.5 mg/kg s.c. daily from day 0, day 17 p.t.): 1.9 points; amelioration of clinical impairment (disability score) vs vehicle ([3]; nitrendipine 2.5 mg/kg s.c. daily from day 0, day 18 p.t.): 2.25 points; amelioration of clinical impairment (disability score) vs vehicle ([3]; nitrendipine 2.5 mg/kg s.c. daily from day 0, day 19 p.t.): 1.65 points; amelioration of clinical impairment (disability score) vs vehicle ([3]; nitrendipine 2.5 mg/kg s.c. daily from day 0, day 20 p.t.): 1.6 points
